# Assay results from ChEMBL document CHEMBL3044921, “Synthesis, characterization, and SAR studies of new (1H-indol-3-yl)alkyl-3-(1H-indol-3-yl)propanamide derivatives as possible antimicrobial and antitubercular agents” (2013).
# Tested on: Aspergillus flavus
# Test: Antifungal activity against Aspergillus flavus NCIM 524 assessed as growth inhibition after 3 to 4 days by serial plate dilution method
# Type: functional
# Settings: not given
row,SMILES,MIC [µg/mL]
1,Cc1c(CNC(=O)CCc2c[nH]c3ccc(Cl)cc23)c2cc(OC(F)(F)F)ccc2n1C,12.5
2,Cn1cc(CNC(=O)CCc2c[nH]c3ccc(Cl)cc23)c2cc(Cl)ccc21,6.25

# Tested on: Mycolicibacterium fortuitum
# Test: Antitubercular activity against Mycobacterium fortuitum ATCC 19542 assessed as growth inhibition at 0.3125 to 5 ug/mL after 7 days by resazurin reduction test
# Type: functional
# Settings: ATCC 19542, 168 h
row,SMILES,MIC [µg/mL]
1,Cn1cc(CNC(=O)CCc2c[nH]c3ccc(Cl)cc23)c2cc(Cl)ccc21,10

# Tested on: Staphylococcus aureus
# Test: Antibacterial activity against Staphylococcus aureus ATCC 25923 assessed as growth inhibition after 16 to 18 hr by serial plate dilution method
# Type: functional
# Settings: not given
row,SMILES,MIC [µg/mL]
1,Cc1c(CNC(=O)CCc2c[nH]c3ccc(Cl)cc23)c2cc(OC(F)(F)F)ccc2n1C,6.25
2,Cn1cc(CNC(=O)CCc2c[nH]c3ccc(Cl)cc23)c2cc(Cl)ccc21,12.5

# Tested on: Mycobacterium tuberculosis
# Test: Antitubercular activity against Mycobacterium tuberculosis H37Rv ATCC 27294 assessed as growth inhibition at 0.3125 to 5 ug/mL after 7 days by resazurin reduction test
# Type: functional
# Settings: H37Rv ATCC 27294, 168 h
row,SMILES,MIC [µg/mL]
1,Cc1c(CNC(=O)CCc2c[nH]c3ccc(Cl)cc23)c2cc(OC(F)(F)F)ccc2n1C,5
2,Cn1cc(CNC(=O)CCc2c[nH]c3ccc(Cl)cc23)c2cc(Cl)ccc21,1.25

# Tested on: Klebsiella pneumoniae
# Test: Antibacterial activity against Klebsiella pneumoniae assessed as growth inhibition after 16 to 18 hr by serial plate dilution method
# Type: functional
# Settings: not given
row,SMILES,MIC [µg/mL]
1,Cc1c(CNC(=O)CCc2c[nH]c3ccc(Cl)cc23)c2cc(OC(F)(F)F)ccc2n1C,25
2,Cn1cc(CNC(=O)CCc2c[nH]c3ccc(Cl)cc23)c2cc(Cl)ccc21,12.5

# Tested on: Trichophyton mentagrophytes
# Test: Antifungal activity against Trichophyton mentagrophytes assessed as growth inhibition at […] to […] ug/ml after 3 to 4 days by agar well diffusion method
# Type: functional
# Settings: not given
row,SMILES,diameter of the inhibition zone (DIZ) [mm]
1,Cc1c(CNC(=O)CCc2c[nH]c3ccc(Cl)cc23)c2cc(OC(F)(F)F)ccc2n1C,11
2,Cn1cc(CNC(=O)CCc2c[nH]c3ccc(Cl)cc23)c2cc(Cl)ccc21,16

# Tested on: Streptococcus pyogenes
# Test: Antibacterial activity against Streptococcus pyogenes assessed as growth inhibition after 16 to 18 hr by serial plate dilution method
# Type: functional
# Settings: not given
row,SMILES,MIC [µg/mL]
1,Cc1c(CNC(=O)CCc2c[nH]c3ccc(Cl)cc23)c2cc(OC(F)(F)F)ccc2n1C,25
2,Cn1cc(CNC(=O)CCc2c[nH]c3ccc(Cl)cc23)c2cc(Cl)ccc21,6.25

# Tested on: Mycolicibacterium smegmatis
# Test: Antitubercular activity against Mycobacterium smegmatis ATCC 19420 assessed as growth inhibition at 1 to 100 ug/mL after 7 days by resazurin reduction test
# Type: functional
# Settings: ATCC 19420, 168 h
row,SMILES,MIC [µg/mL]
1,Cc1c(CNC(=O)CCc2c[nH]c3ccc(Cl)cc23)c2cc(OC(F)(F)F)ccc2n1C,10
2,Cn1cc(CNC(=O)CCc2c[nH]c3ccc(Cl)cc23)c2cc(Cl)ccc21,10

# Tested on: Pseudomonas aeruginosa
# Test: Antibacterial activity against Pseudomonas aeruginosa ATCC 27853 assessed as growth inhibition after 16 to 18 hr by serial plate dilution method
# Type: functional
# Settings: not given
row,SMILES,MIC [µg/mL]
1,Cc1c(CNC(=O)CCc2c[nH]c3ccc(Cl)cc23)c2cc(OC(F)(F)F)ccc2n1C,6.25
2,Cn1cc(CNC(=O)CCc2c[nH]c3ccc(Cl)cc23)c2cc(Cl)ccc21,25

# Tested on: Candida albicans
# Test: Antifungal activity against Candida albicans assessed as growth inhibition after 3 to 4 days by serial plate dilution method
# Type: functional
# Settings: not given
row,SMILES,MIC [µg/mL]
1,Cc1c(CNC(=O)CCc2c[nH]c3ccc(Cl)cc23)c2cc(OC(F)(F)F)ccc2n1C,6.25
2,Cn1cc(CNC(=O)CCc2c[nH]c3ccc(Cl)cc23)c2cc(Cl)ccc21,6.25

# Tested on: Aspergillus fumigatus
# Test: Antifungal activity against Aspergillus fumigatus NCIM 902 assessed as growth inhibition after 3 to 4 days by serial plate dilution method
# Type: functional
# Settings: not given
row,SMILES,MIC [µg/mL]
1,Cc1c(CNC(=O)CCc2c[nH]c3ccc(Cl)cc23)c2cc(OC(F)(F)F)ccc2n1C,12.5
2,Cn1cc(CNC(=O)CCc2c[nH]c3ccc(Cl)cc23)c2cc(Cl)ccc21,6.25

# Tested on: Trichophyton mentagrophytes
# Test: Antifungal activity against Trichophyton mentagrophytes assessed as growth inhibition after 3 to 4 days by serial plate dilution method
# Type: functional
# Settings: not given
row,SMILES,MIC [µg/mL]
1,Cc1c(CNC(=O)CCc2c[nH]c3ccc(Cl)cc23)c2cc(OC(F)(F)F)ccc2n1C,12.5
2,Cn1cc(CNC(=O)CCc2c[nH]c3ccc(Cl)cc23)c2cc(Cl)ccc21,6.25

# Tested on: Pseudomonas aeruginosa
# Type: functional, ATCC 27853
# Settings: not given
row,SMILES,diameter of the inhibition zone (DIZ) [mm]
1,Cc1c(CNC(=O)CCc2c[nH]c3ccc(Cl)cc23)c2cc(OC(F)(F)F)ccc2n1C,16
2,Cn1cc(CNC(=O)CCc2c[nH]c3ccc(Cl)cc23)c2cc(Cl)ccc21,<10

# Tested on: Mycobacterium tuberculosis
# Test: Antitubercular activity against Mycobacterium tuberculosis H37Rv ATCC 27294 assessed as growth inhibition at 1 to 100 ug/mL after 7 days by resazurin reduction test
# Type: functional
# Settings: not given
row,SMILES,growth inhibition (GI) [%]
1,Cc1c(CNC(=O)CCc2c[nH]c3ccc(Cl)cc23)c2cc(OC(F)(F)F)ccc2n1C,<90
2,Cn1cc(CNC(=O)CCc2c[nH]c3ccc(Cl)cc23)c2cc(Cl)ccc21,90

# Same assay, conditions: Mycobacterium tuberculosis, H37Rv ATCC 27294, 168 h
row,SMILES,MIC [µg/mL]
1,Cc1c(CNC(=O)CCc2c[nH]c3ccc(Cl)cc23)c2cc(OC(F)(F)F)ccc2n1C,> 100
2,Cn1cc(CNC(=O)CCc2c[nH]c3ccc(Cl)cc23)c2cc(Cl)ccc21,> 100

# Tested on: Staphylococcus aureus
# Type: functional, ATCC 25923
# Settings: not given
row,SMILES,diameter of the inhibition zone (DIZ) [mm]
1,Cc1c(CNC(=O)CCc2c[nH]c3ccc(Cl)cc23)c2cc(OC(F)(F)F)ccc2n1C,16
2,Cn1cc(CNC(=O)CCc2c[nH]c3ccc(Cl)cc23)c2cc(Cl)ccc21,11

# Tested on: Mycolicibacterium fortuitum
# Test: Antitubercular activity against Mycobacterium fortuitum ATCC 19542 assessed as growth inhibition at 1 to 100 ug/mL after 7 days by resazurin reduction test
# Type: functional
# Settings: ATCC 19542, 168 h
row,SMILES,MIC [µg/mL]
1,Cc1c(CNC(=O)CCc2c[nH]c3ccc(Cl)cc23)c2cc(OC(F)(F)F)ccc2n1C,> 100
2,Cn1cc(CNC(=O)CCc2c[nH]c3ccc(Cl)cc23)c2cc(Cl)ccc21,10

# Tested on: Aspergillus flavus
# Test: Antifungal activity against Aspergillus flavus NCIM 524 assessed as growth inhibition at […] to […] ug/ml after 3 to 4 days by agar well diffusion method
# Type: functional
# Settings: not given
row,SMILES,diameter of the inhibition zone (DIZ) [mm]
1,Cc1c(CNC(=O)CCc2c[nH]c3ccc(Cl)cc23)c2cc(OC(F)(F)F)ccc2n1C,11
2,Cn1cc(CNC(=O)CCc2c[nH]c3ccc(Cl)cc23)c2cc(Cl)ccc21,16

# Tested on: Talaromyces marneffei
# Test: Antifungal activity against Talaromyces marneffei assessed as growth inhibition after 3 to 4 days by serial plate dilution method
# Type: functional
# Settings: not given
row,SMILES,MIC [µg/mL]
1,Cc1c(CNC(=O)CCc2c[nH]c3ccc(Cl)cc23)c2cc(OC(F)(F)F)ccc2n1C,12.5
2,Cn1cc(CNC(=O)CCc2c[nH]c3ccc(Cl)cc23)c2cc(Cl)ccc21,6.25

# Tested on: Talaromyces marneffei
# Test: Antifungal activity against Talaromyces marneffei assessed as growth inhibition at […] to […] ug/ml after 3 to 4 days by agar well diffusion method
# Type: functional
# Settings: not given
row,SMILES,diameter of the inhibition zone (DIZ) [mm]
1,Cc1c(CNC(=O)CCc2c[nH]c3ccc(Cl)cc23)c2cc(OC(F)(F)F)ccc2n1C,11
2,Cn1cc(CNC(=O)CCc2c[nH]c3ccc(Cl)cc23)c2cc(Cl)ccc21,16

# Tested on: Aspergillus fumigatus
# Test: Antifungal activity against Aspergillus fumigatus NCIM 902 assessed as growth inhibition at […] to […] ug/ml after 3 to 4 days by agar well diffusion method
# Type: functional
# Settings: not given
row,SMILES,diameter of the inhibition zone (DIZ) [mm]
1,Cc1c(CNC(=O)CCc2c[nH]c3ccc(Cl)cc23)c2cc(OC(F)(F)F)ccc2n1C,11
2,Cn1cc(CNC(=O)CCc2c[nH]c3ccc(Cl)cc23)c2cc(Cl)ccc21,16

# Tested on: Escherichia coli
# Type: functional, ATCC 24922
# Settings: not given
row,SMILES,diameter of the inhibition zone (DIZ) [mm]
1,Cc1c(CNC(=O)CCc2c[nH]c3ccc(Cl)cc23)c2cc(OC(F)(F)F)ccc2n1C,11
2,Cn1cc(CNC(=O)CCc2c[nH]c3ccc(Cl)cc23)c2cc(Cl)ccc21,11

# Tested on: Escherichia coli
# Test: Antibacterial activity against Escherichia coli […] assessed as growth inhibition after 16 to 18 hr by serial plate dilution method
# Type: functional
# Settings: not given
row,SMILES,MIC [µg/mL]
1,Cc1c(CNC(=O)CCc2c[nH]c3ccc(Cl)cc23)c2cc(OC(F)(F)F)ccc2n1C,12.5
2,Cn1cc(CNC(=O)CCc2c[nH]c3ccc(Cl)cc23)c2cc(Cl)ccc21,12.5

# Tested on: Candida albicans
# Test: Antifungal activity against Candida albicans assessed as growth inhibition at […] to […] ug/ml after 3 to 4 days by agar well diffusion method
# Type: functional
# Settings: not given
row,SMILES,diameter of the inhibition zone (DIZ) [mm]
1,Cc1c(CNC(=O)CCc2c[nH]c3ccc(Cl)cc23)c2cc(OC(F)(F)F)ccc2n1C,16
2,Cn1cc(CNC(=O)CCc2c[nH]c3ccc(Cl)cc23)c2cc(Cl)ccc21,16

# Tested on: Klebsiella pneumoniae
# Type: functional
# Settings: not given
row,SMILES,diameter of the inhibition zone (DIZ) [mm]
1,Cc1c(CNC(=O)CCc2c[nH]c3ccc(Cl)cc23)c2cc(OC(F)(F)F)ccc2n1C,<10
2,Cn1cc(CNC(=O)CCc2c[nH]c3ccc(Cl)cc23)c2cc(Cl)ccc21,11

# Tested on: Streptococcus pyogenes
# Type: functional
# Settings: not given
row,SMILES,diameter of the inhibition zone (DIZ) [mm]
1,Cc1c(CNC(=O)CCc2c[nH]c3ccc(Cl)cc23)c2cc(OC(F)(F)F)ccc2n1C,<10
2,Cn1cc(CNC(=O)CCc2c[nH]c3ccc(Cl)cc23)c2cc(Cl)ccc21,16
